Source: the supplement of paper PMC7455731

Test: collision cross section (DTIM-MS, N2); higher = larger ion
Protocol: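 Collision cross section (CCS) of drug and natural-product chemical standards (validation set 2, measured in this paper). Three independent measurements were made across 2 months; the value taken is their mean (avg_ccs), for the ion adduct given.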

Work on CC1(C)CCC[C@@]2(C)OC(=O)C=C12 yielded a collision cross section (ion adduct: [M+H]+) of 138.93 Å².

In the case of COc1cc(/C=C/C(=O)O)cc(OC)c1OC [3,4,5-Trimethoxycinnamic acid], the collision cross section (ion adduct: [M-H]-) is reported as 167.91 Å².

With COc1cc(C2c3cc4c(cc3C(O)C3COC(=O)C23)OCO4)cc(OC)c1O (stereo not given) [4'-Demethylpodophyllotoxin] the collision cross section (ion adduct: [M+H]+) was 195.99 Å² and the collision cross section (ion adduct: [M-H]-) was 197.38 Å².

Work on O=C(C=Cc1ccc(O)c(O)c1)OC1CC(O)(C(=O)O)CC(O)C1OC(=O)C=Cc1ccc(O)c(O)c1 (stereo not given) [4,5-Dicaffeoylquinic acid] yielded a collision cross section (ion adduct: [M-H]-) of 213.46 Å².

Compound Cc1cc(=O)oc2cc(O)c(O)cc12 [4-Methyl-6,7-dihydroxycoumarin] has a collision cross section (ion adduct: [M+H]+) of 136.8 Å² and a collision cross section (ion adduct: [M-H]-) of 135.33 Å².

Cc1cc(=O)oc2cc(O)cc(O)c12 [5,7-Dihydroxy-4-methylcoumarin] showed a collision cross section (ion adduct: [M+H]+) of 136.89 Å² and a collision cross section (ion adduct: [M-H]-) of 135.28 Å².

Compound CCCCC[C@H](O)CC(=O)CCc1ccc(O)c(OC)c1 [6-Gingerol] has a collision cross section (ion adduct: [M-H]-) of 170.04 Å².

With Cc1cc(=O)oc2ccc(O)cc12 [6-Hydroxy-4-methylcoumarin] the collision cross section (ion adduct: [M-H]-) was 135.48 Å².

For O=c1ccc2cc(O)ccc2o1 [6-Hydroxycoumarin], the collision cross section (ion adduct: [M+H]+) was 129.59 Å² and the collision cross section (ion adduct: [M-H]-) was 129.61 Å².

With CCCCCC=CC(=O)CCc1ccc(O)c(OC)c1 [6-Shogaol] the collision cross section (ion adduct: [M-H]-) was 167.21 Å².

O=c1cc(-c2ccccc2)c2ccc(O)c(O)c2o1 [7,8-Dihydroxy-4-phenylcoumarin] gave a collision cross section (ion adduct: [M+H]+) of 156.5 Å² and a collision cross section (ion adduct: [M-H]-) of 157.01 Å².

For COc1ccc2ccc(=O)oc2c1 [7-Methoxycoumarin], the collision cross section (ion adduct: [M+H]+) was 131.39 Å².

For Cc1cc(=O)oc2c([N+](=O)[O-])c(O)ccc12 [7-hydroxy-4-methyl-8-nitrocoumarin], the collision cross section (ion adduct: [M+H]+) was 144.57 Å².

CCCCCCCC(O)CC(=O)CCc1ccc(O)c(OC)c1 (stereo not given) [8-Gingerol] showed a collision cross section (ion adduct: [M-H]-) of 178.08 Å².

Compound COC(=O)C1=CO[C@@H](O[C@@H]2O[C@H](CO)[C@@H](O)[C@H](O)[C@H]2O)[C@H]2[C@@H]1[C@H](O)C[C@]2(C)OC(C)=O [8-O-Acetylshanzhiside methyl ester] has a collision cross section (ion adduct: [M-H]-) of 208.19 Å².

Compound CCCCCCCCC[C@H](O)CC(=O)CCc1ccc(O)c(OC)c1 [10-Gingerol] has a collision cross section (ion adduct: [M-H]-) of 188 Å².

Work on CC(C)=CCC[C@](C)(O)[C@H]1CC[C@]2(C)[C@@H]1[C@H](O)C[C@@H]1[C@@]3(C)CC[C@H](O)C(C)(C)[C@@H]3CC[C@]12C [(20S)-Protopanaxdiol] yielded a collision cross section (ion adduct: [M-H]-) of 222.94 Å².

CC(C)(C)[C@]1(O)C[C@@H]2OC(=O)C[C@@]23C(=O)O[C@@H]2OC(=O)[C@H](O)[C@]213 [(-)-Bilobalide] showed a collision cross section (ion adduct: [M-H]-) of 162.4 Å².

In the case of CC(C)C1=CC2=CC[C@@H]3[C@](C)(CCC[C@@]3(C)C(=O)O)[C@H]2CC1 [Abietic acid], the collision cross section (ion adduct: [M+H]+) is reported as 174.96 Å² and the collision cross section (ion adduct: [M-H]-) is reported as 185.72 Å².

Work on CC(=O)Nc1nnc(S(N)(=O)=O)s1 [Acetazolamide] yielded a collision cross section (ion adduct: [M+H]+) of 142.71 Å² and a collision cross section (ion adduct: [M-H]-) of 138.64 Å².

Compound COc1cc(C(C)=O)ccc1O [Acetovanillone] has a collision cross section (ion adduct: [M-H]-) of 133.81 Å².

Work on Nc1nc2c(ncn2COCCO)c(=O)[nH]1 [Aciclovir] yielded a collision cross section (ion adduct: [M+H]+) of 149.17 Å² and a collision cross section (ion adduct: [M-H]-) of 148.31 Å².

Work on OC[C@@H](O)[C@@H](O)[C@@H](O)[C@@H](O)CO [Allitol] yielded a collision cross section (ion adduct: [M-H]-) of 132.47 Å².

O=C(C=CC=Cc1ccccc1)CCc1ccccc1 [Alnustone] gave a collision cross section (ion adduct: [M+H]+) of 168.73 Å² and a collision cross section (ion adduct: [M-H]-) of 178.13 Å².

In the case of COc1cc(O)cc2c1C(=O)C[C@@H](c1ccccc1)O2 [Alpinetin], the collision cross section (ion adduct: [M+H]+) is reported as 160.76 Å².

In the case of C=CC[C@]1(O)CC[C@H]2[C@@H]3CCC4=CC(=O)CCC4=C3C=C[C@@]21C [Altrenogest], the collision cross section (ion adduct: [M+H]+) is reported as 178.86 Å² and the collision cross section (ion adduct: [M-H]-) is reported as 180.56 Å².

For COc1cc(NS(C)(=O)=O)ccc1Nc1c2ccccc2nc2ccccc12 [Amsacrine], the collision cross section (ion adduct: [M+H]+) was 195.94 Å² and the collision cross section (ion adduct: [M-H]-) was 199.97 Å².

For N#C[C@H](O[C@@H]1O[C@H](CO[C@@H]2O[C@H](CO)[C@@H](O)[C@H](O)[C@H]2O)[C@@H](O)[C@H](O)[C@H]1O)c1ccccc1 [Amygdalin], the collision cross section (ion adduct: [M+H]+) was 214.69 Å² and the collision cross section (ion adduct: [M-H]-) was 205.69 Å².

Work on COc1ccc(C[C@H]2NC[C@H](O)[C@H]2OC(C)=O)cc1 [Anisomycin] yielded a collision cross section (ion adduct: [M+H]+) of 164.18 Å².

COc1ccc(C[C@H]2COC(=O)[C@@H]2Cc2ccc(O[C@@H]3O[C@H](CO)[C@@H](O)[C@H](O)[C@H]3O)c(OC)c2)cc1OC [Arctiin] showed a collision cross section (ion adduct: [M-H]-) of 220.58 Å².

C[C@H]1[C@H](OC(=O)CCC(=O)O)O[C@@H]2O[C@@]3(C)CC[C@H]4[C@H](C)CC[C@@H]1[C@@]24OO3 [Artesunate] showed a collision cross section (ion adduct: [M-H]-) of 185.75 Å².

In the case of O=C1C(O)=C([C@H]2CC[C@H](c3ccc(Cl)cc3)CC2)C(=O)c2ccccc21 [Atovaquone], the collision cross section (ion adduct: [M-H]-) is reported as 193.52 Å².

O=C(Nc1ccccc1)c1ccccc1I [Benodanil] gave a collision cross section (ion adduct: [M+H]+) of 152.62 Å² and a collision cross section (ion adduct: [M-H]-) of 156.05 Å².

With COc1c2ccoc2cc2oc(=O)ccc12 [Bergapten] the collision cross section (ion adduct: [M+H]+) was 139.92 Å².

Compound COc1ccc(-c2cc(=O)c3c(O)cc(O)cc3o2)cc1-c1c(O)cc(O)c2c(=O)cc(-c3ccc(O)cc3)oc12 [Bilobetin] has a collision cross section (ion adduct: [M+H]+) of 230.49 Å² and a collision cross section (ion adduct: [M-H]-) of 221.44 Å².

In the case of Oc1c(Cl)cc(Cl)cc1Sc1cc(Cl)cc(Cl)c1O [Bithionol], the collision cross section (ion adduct: [M-H]-) is reported as 169.35 Å².

With O=C(Nc1nc(-c2ccc(O)c(O)c2)c(-c2ccccc2)s1)c1ccc(O)c(O)c1 [COH29] the collision cross section (ion adduct: [M+H]+) was 207.91 Å² and the collision cross section (ion adduct: [M-H]-) was 200.74 Å².

For O=C(/C=C/c1ccc(O)c(O)c1)OCCc1ccccc1 [Caffeic acid phenethyl ester], the collision cross section (ion adduct: [M-H]-) was 176.94 Å².

In the case of CNC(=O)Oc1cccc2ccccc12 [Carbaryl], the collision cross section (ion adduct: [M-H]-) is reported as 144.36 Å².

Work on COC(=O)Nc1nc2ccccc2[nH]1 [Carbendazim] yielded a collision cross section (ion adduct: [M+H]+) of 138.81 Å².

COc1cc(O)cc(O)c1C(=O)/C=C/c1ccccc1 [Cardamonin] showed a collision cross section (ion adduct: [M+H]+) of 164.02 Å² and a collision cross section (ion adduct: [M-H]-) of 167.35 Å².

Work on O=C(N[C@H](CO)[C@H](O)c1ccc([N+](=O)[O-])cc1)C(Cl)Cl [Chloramphenicol] yielded a collision cross section (ion adduct: [M-H]-) of 166.95 Å².

Work on Nc1ccn(C[C@@H](CO)OCP(=O)(O)O)c(=O)n1 [Cidofovir] yielded a collision cross section (ion adduct: [M+H]+) of 157.98 Å² and a collision cross section (ion adduct: [M-H]-) of 158.46 Å².

Nc1nc(Cl)nc2c1ncn2[C@@H]1O[C@H](CO)[C@@H](O)[C@@H]1F [Clofarabine] gave a collision cross section (ion adduct: [M+H]+) of 158.19 Å² and a collision cross section (ion adduct: [M-H]-) of 162.03 Å².

O=c1ccc2ccccc2o1 [Coumarin] showed a collision cross section (ion adduct: [M+H]+) of 124.69 Å².

For CC1(C)CC[C@]2(C(=O)O)CC[C@]3(C)C(=CC[C@@H]4[C@@]5(C)C[C@@H](O)[C@H](O)C(C)(C)[C@@H]5CC[C@]43C)[C@@H]2C1 [Crategolic acid], the collision cross section (ion adduct: [M-H]-) was 222.53 Å².

CC(/C=C/C=C(\C)C(=O)O[C@@H]1O[C@H](CO)[C@@H](O)[C@H](O)[C@H]1O)=C\C=C\C=C(C)\C=C\C=C(/C)C(=O)O[C@@H]1O[C@H](CO[C@@H]2O[C@H](CO)[C@@H](O)[C@H](O)[C@H]2O)[C@@H](O)[C@@H](O)[C@H]1O [Crocin II] showed a collision cross section (ion adduct: [M-H]-) of 280.87 Å².

With CC(/C=C/C=C(\C)C(=O)O[C@@H]1O[C@H](CO[C@@H]2O[C@H](CO)[C@@H](O)[C@H](O)[C@H]2O)[C@@H](O)[C@H](O)[C@H]1O)=C\C=C\C=C(C)\C=C\C=C(/C)C(=O)O[C@@H]1O[C@H](CO[C@@H]2O[C@H](CO)[C@@H](O)[C@H](O)[C@H]2O)[C@@H](O)[C@H](O)[C@H]1O [Crocin] the collision cross section (ion adduct: [M-H]-) was 310.8 Å².

C[C@H]1C(=O)O[C@@H]2CCN3CC=C(COC(=O)[C@](C)(O)[C@]1(C)O)[C@H]23 [Crotaline] gave a collision cross section (ion adduct: [M+H]+) of 176.34 Å².

Work on Nc1nc(N)nc(NC2CC2)n1 [Cyromazine] yielded a collision cross section (ion adduct: [M+H]+) of 135.92 Å².

Nc1ccn([C@@H]2O[C@H](CO)[C@@H](O)[C@@H]2O)c(=O)n1 [Cytarabine] gave a collision cross section (ion adduct: [M-H]-) of 151.89 Å².

CCCCCCCCOC(=O)c1ccccc1C(=O)OCCCCCCCC [DI-N-OCTYL PHTHALATE] gave a collision cross section (ion adduct: [M+H]+) of 211 Å².

For CN(C)NC(=O)CCC(=O)O [Daminozide], the collision cross section (ion adduct: [M-H]-) was 135.88 Å².

For COc1cc2c(cc1OC)C(Cc1ccc(Oc3cc(CC4c5cc(OC)c(OC)cc5CCN4C)ccc3O)cc1)N(C)CC2 (stereo not given) [Dauricine], the collision cross section (ion adduct: [M+H]+) was 248.03 Å² and the collision cross section (ion adduct: [M-H]-) was 259.6 Å².

Compound CC(C)=CC(=O)OC1Cc2cc3ccc(=O)oc3cc2OC1(C)C (stereo not given) [Decursin] has a collision cross section (ion adduct: [M+H]+) of 185.63 Å² and a collision cross section (ion adduct: [M-H]-) of 180.82 Å².

In the case of COc1cc2c(cc1OC)[C@@H]1C(=O)c3ccc4c(c3O[C@@H]1CO2)C=CC(C)(C)O4 [Deguelin], the collision cross section (ion adduct: [M+H]+) is reported as 196.5 Å² and the collision cross section (ion adduct: [M-H]-) is reported as 198.36 Å².

COc1cc(C=CC(=O)CC(=O)C=Cc2ccc(O)cc2)ccc1O [Demethoxycurcumin] gave a collision cross section (ion adduct: [M+H]+) of 193.33 Å².

For COC1=CC(=O)O[C@@H](CCc2ccccc2)C1 [Dihydrokavain], the collision cross section (ion adduct: [M+H]+) was 149.11 Å².

Work on Cc1ncc([N+](=O)[O-])n1C [Dimetridazole] yielded a collision cross section (ion adduct: [M+H]+) of 127.62 Å².

In the case of C[C@H]1CC[C@]2(OC1)O[C@H]1C[C@H]3[C@@H]4CC=C5C[C@@H](O[C@@H]6O[C@H](CO)[C@@H](O[C@@H]7O[C@@H](C)[C@H](O)[C@@H](O)[C@H]7O)[C@H](O)[C@H]6O[C@@H]6O[C@@H](C)[C@H](O)[C@@H](O)[C@H]6O)CC[C@]5(C)[C@H]4CC[C@]3(C)[C@H]1[C@@H]2C [Dioscin], the collision cross section (ion adduct: [M+H]+) is reported as 330.49 Å² and the collision cross section (ion adduct: [M-H]-) is reported as 324.15 Å².

C[C@H]1CC[C@]2(OC1)O[C@H]1C[C@H]3[C@@H]4CC=C5C[C@@H](O)CC[C@]5(C)[C@H]4CC[C@]3(C)[C@H]1[C@@H]2C [Diosgenin] gave a collision cross section (ion adduct: [M+H]+) of 209.65 Å².

For COc1cc(O)ccc1/C=C/C(=O)c1ccc(O)cc1 [Echinatin], the collision cross section (ion adduct: [M+H]+) was 167.45 Å² and the collision cross section (ion adduct: [M-H]-) was 171.54 Å².
